According to patent publication US9807999B2, “Formulations” (priority 2010, dated 2017):

Assays:
[1] = Solubility of active ingredients in solvents of the invention (equilibrated 4 weeks, supernatant analysed by gas chromatography)
Method: The resultant sample was mixed with a Whirlimixer™ and was then stored at 25° C. […] This procedure was repeated until the sample had equilibrated for 4 weeks following the final addition of either active ingredient or solvent.

[2] = Solubility of pesticides in propylene glycol benzoate compared with commonly used solvents; settings: comparison in words; 20° C.
[3] = solvent propylene glycol benzoate (compound 1), 25° C., equilibrated 4 weeks
[4] = solvent butylene glycol benzoate (compound 2), 25° C., equilibrated 4 weeks

Structure (SMILES)	Solubility in propylene glycol benzoate at 25° C. [1, 3]	Solubility in propylene glycol benzoate relative to a series of commonly used solvents [2]	Solubility in butylene glycol benzoate at 25° C. ([1]; 4 weeks)	Solubility in propylene glycol benzoate at 25° C. ([1]; 4 weeks)	Solubility in butylene glycol benzoate at 25° C. [1, 4]
N#Cc1c(Cl)c(Cl)c(Cl)c(C#N)c1Cl [Chlorothalonil]	1.32 % w/w	lower			
CC(C1CC1)C(O)(Cn1cncn1)c1ccc(Cl)cc1 (centres unmarked) [Cyproconazole]			6.9 % w/w	4.5 % w/w	
COCCOCc1nc(C(F)(F)F)ccc1C(=O)C1=C(O)C2CCC(C2)C1=O (centres unmarked) [4-Hydroxy-3-[2-(2-methoxyethoxymethyl)-6-trifluoromethylpyridine-3-carbonyl]-bicyclo[3.2.1]oct-3-en-2-one]	27.4 % w/w				
CC(C)C1C2CCC1c1c(NC(=O)c3cn(C)nc3C(F)F)cccc12 (centres unmarked) [Isopyrazam]	12.7 % w/w	higher			12.4 % w/w
CO/C=C(/C(=O)OC)c1ccccc1Oc1cc(Oc2ccccc2C#N)ncn1 [Azoxystrobin]	5.5 % w/w	higher			8.1 % w/w
